Measurements: patent publication US5770734A, “N-substituted-2-aminoquinolines useful for treating hypofunction of the cholinergic system” (American Home Products Corporation, priority 1992, dated 1998)
Read-outs that look alike come from different tables or passages of the source.

How the values were obtained:
M1 muscarinic receptor = target: T1, M1 muscarinic receptor (Rattus norvegicus, UniProt P08482); assay: M1 receptor binding ([^3 H]-pirenzepine); parameters: species or system rat (male Sprague-Dawley); conditions: Table 1; rat brain tissue, [^3 H]PZ 0.5 nM; read-out: ^3 H-Pirenzepine M1 IC50
T1 sequence (P08482 1-460): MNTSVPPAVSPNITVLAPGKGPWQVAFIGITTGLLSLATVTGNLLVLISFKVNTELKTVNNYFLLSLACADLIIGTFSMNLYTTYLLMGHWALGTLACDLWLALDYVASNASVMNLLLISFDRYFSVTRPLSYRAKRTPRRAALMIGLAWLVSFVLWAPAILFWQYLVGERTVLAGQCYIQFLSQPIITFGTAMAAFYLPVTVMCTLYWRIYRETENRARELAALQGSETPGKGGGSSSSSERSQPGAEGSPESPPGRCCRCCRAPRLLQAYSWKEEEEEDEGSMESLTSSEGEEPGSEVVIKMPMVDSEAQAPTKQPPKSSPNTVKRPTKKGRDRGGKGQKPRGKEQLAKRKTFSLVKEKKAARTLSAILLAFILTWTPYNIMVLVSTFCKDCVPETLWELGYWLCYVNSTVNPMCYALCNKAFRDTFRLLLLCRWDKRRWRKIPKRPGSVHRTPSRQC
Method: Compounds are tested for their ability to affect M1 muscarinic binding through use of [^3 H]-pirenzepine ([^3 H]PZ) as a prototypic M1 receptor ligand. Male Sprague-Dawley (Charles River) rats are used. Dose selection is typically in the concentration range of 10^-9 to 10^-4 M. Test and reference compounds are dissolved and diluted in water or ethanol and are then added to the assay buffer. The appropriate vehicle is added to the assay buffer for control testing.
The rats (approximately 300 gm body weight) have free access to food and water and are housed in groups of four to six. On the test day, the rats are euthanized by decapitation and brain tissue is dissected and homogenized using a hand-held teflon-coated pestle, in 20 volumes of 0.32M sucrose (20 strokes at 4° C.). After centrifugation (747×g for 10 minutes at 4° C.), the resultant supernatant is decanted and recentrifuged (18677×g for 20 minutes at 4° C.). The resultant pellet is resuspended in the original volume of 0.32M sucrose and frozen. After thawing, the suspension is diluted (1:1 v/v) with 10 mM Na2 HPO4 /KH2 PO4 buffer (pH=7.4). [^3 H]PZ (0.5 nM, 0.04 μCi) is then incubated with a 100 μl sample of the tissue suspension in the above buffer (1 ml final volume, including a 10 μl sample of test compound or vehicle). […] After 60 minutes of incubation at 25° C. (in the dark), the binding is terminated by vacuum filtration onto Whatman GF/B filters (pre-soaked for 60 minutes in 0.1% (w/v) polyethylenimine to reduce non-specific binding). After three washes with the previously mentioned buffer (4° C., 3 ml/wash), the vacuum is allowed to run for two minutes before the filter-trapped radioactivity is assayed by liquid scintillation spectroscopy.
Data are presented as the percent inhibition ([control-test]/control×100%) or enhancement ([test-control]/control×100%) of [^3 H]PZ binding by the test or reference compound. The IC50 value (the drug concentration which causes a 50% inhibition of specific [^3 H]PZ binding) is calculated through the use of the EDOSE program (with probit transformation written by a person for use in STAT80). Increases in [^3 H]PZ are reported as percent increase (versus control) for a given test drug concentration.

M2 receptors [1] = target: T2, M2 receptors (Rattus norvegicus, UniProt P10980); assay: biochemical; format: binding; conditions: read-out: ^3 H-QNB M2 IC50
T2 sequence (P10980 1-466): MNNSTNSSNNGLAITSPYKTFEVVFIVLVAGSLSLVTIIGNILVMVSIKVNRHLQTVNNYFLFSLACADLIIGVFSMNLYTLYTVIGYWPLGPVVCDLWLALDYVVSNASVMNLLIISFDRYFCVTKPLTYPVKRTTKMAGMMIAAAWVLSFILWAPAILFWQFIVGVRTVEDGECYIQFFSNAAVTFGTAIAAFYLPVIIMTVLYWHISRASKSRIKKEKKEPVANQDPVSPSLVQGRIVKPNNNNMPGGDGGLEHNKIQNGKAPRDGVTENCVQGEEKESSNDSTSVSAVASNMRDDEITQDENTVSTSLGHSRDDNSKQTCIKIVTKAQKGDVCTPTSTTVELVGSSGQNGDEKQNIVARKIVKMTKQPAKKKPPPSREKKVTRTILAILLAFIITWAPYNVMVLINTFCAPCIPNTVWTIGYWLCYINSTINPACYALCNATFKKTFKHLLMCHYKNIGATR

M2 receptors [2] = assay: biochemical; format: binding; conditions: Table 1; ratio of M2 IC50 to M1 IC50
[3] = system: scopolamine-induced hyperactivity, a proposed muscarinic M1 -mediated effect; assay: Scopolamine-induced hyperactivity (locomotor activity); format: in vivo, rat; parameters: Total activity: unit not given here
Method: Compounds were evaluated for the ability to attenuate scopolamine-induced hyperactivity, a proposed muscarinic M1 -mediated effect. Animals were permitted to habituate for 30 minutes in locomotor activity chambers (Digiscan, Omnitech; Columbus, Ohio) in which infrared detectors were used to measure movement in 3 axes. The animals were then injected i.p. with vehicle alone, scopolamine alone (1.7 mg/kg) or both scopolamine and one dose of the test compound. Animals were then replaced in the chambers and locomotor activity was measured for an additional 1 hour period. Total activity measures (vertical+horizintal movements) were collected and statistically analyzed in four 15 minute periods.

[4] = system: Scopolamine-impaired Radial Arm Maze; assay: Scopolamine-impaired Radial Arm Maze; format: in vivo, rat (male Sprague-Dawley)
From the text: Male Sprague-Dawley (Charles River) rats on a 23-hour food deprivation schedule were trained in an eight arm radial maze with all arms baited. Each session consisted of two maze exposures, with a time limit of 300 seconds for each exposure. After four correct choices (first exposure), each animal was removed from the maze for one hour, then returned with only the remaining four arms baited (second exposure). Choice errors, consisting of delay errors (re-entry into any of the four arms chosen during the first exposure) and current errors (re-entry into any of the four arms chosen during the second exposure), as well as total errors were recorded. Durations for each exposure were also recorded. Statistical analysis was performed using a one-way ANOVA with Dunnett's t-test comparisons. Scopolamine (0.3 mg/kg, S.C.) and the compound of Example 1 (3,10 mg/kg, I.P,.) were administrered simultaneously 30 minutes prior to the test. All compounds were solubilized in phosphate buffered saline.

[5] = system: scopolamine-induced memory loss; conditions: cited from earlier work
memory loss = conditions: cat, rat, and monkey; muscarinic antagonist; cited from earlier work
[6] = system: scopolamine-induced memory loss; conditions: rats; cited from earlier work
[7] = system: Alzheimer's patients and healthy elderly patients; conditions: cited from earlier work; for clinical efficacy: human, in vivo
[8] = system: scopolamine-induced memory loss; conditions: monkeys; cited from earlier work
[9] = scopolamine + Example 1 3.0 mg/kg I.P., N=11
[10] = scopolamine + Example 1 10.0 mg/kg I.P., N=12
[11] = scopolamine alone 0.3 mg/kg S.C., N=12

Cc1cc(NCCCN2CCOCC2)nc2ccccc12 [Example 1, 4-Methyl-N-[3-(4-morpholinyl)propyl]-2-quinolinamine (E)-2-butenedioate 1:1 hydrate]
IC50 (M1 muscarinic receptor): 1.2 µM | IC50 (M2 receptors [1]): 69.3 µM | M2/M1 (M2 receptors [2]): 58 | attenuation of scopolamine hyperactivity ([3]; 30 and 54 mg/kg i.p., 30 and 45 minutes post-injection): produced an attenuation at 30 and 45 minutes post-injection that did not differ from the scopolamine-or vehicle-only controls | minimal effective dose ([3]; Rattus norvegicus, ip, attenuation of scopolamine (1.7 mg/kg) hyperactivity, i.p., read-out: minimum effective dose): 30 mg/kg | in vivo M1 agonist activity, less effective than oxotremorine ([3]; relative to oxotremorine): 100 fold | Total activity ([3]; scopolamine + Example 1 30 mg/kg i.p., 15 min, N=10): 3792 | Total activity ([3]; scopolamine + Example 1 30 mg/kg i.p., 30 min, N=10): 2069 | Total activity ([3]; scopolamine + Example 1 30 mg/kg i.p., 45 min, N=10): 1839 | Total activity ([3]; scopolamine + Example 1 30 mg/kg i.p., 60 min, N=10): 1697 | Total activity ([3]; scopolamine + Example 1 54 mg/kg i.p., 15 min, N=10): 3602 | Total activity ([3]; scopolamine + Example 1 54 mg/kg i.p., 30 min, N=10): 1899 | Total activity ([3]; scopolamine + Example 1 54 mg/kg i.p., 45 min, N=10): 1722 | Total activity ([3]; scopolamine + Example 1 54 mg/kg i.p., 60 min, N=10): 1535 | effect on scopolamine impairment ([4]; 3.0 mg/kg I.P.): non-significantly reduced this scoplamine impairment | effect on scopolamine impairment ([4]; 10 mg/kg I.P.): had no effect | effect on increased time measures caused by scopolamine ([4]; 3, 10 mg/kg I.P.): largely unaffected | cognitive impairments seen after scopolamine treatment (conclusion) ([4]; rat, in vivo): can reduce the cognitive impairments seen after scopolamine treatment | Mean Error, Current [4, 9]: 0.55 | Mean Error, Delay [4, 9]: 1.77 | Mean Error, Total [4, 9]: 1.14 | Mean Time 1.4 [4, 9]: 90.10 s | Mean Time 5- [4, 9]: 121.73 s | Mean Time Total [4, 9]: 105.91 s | Mean Error, Current [4, 10]: 0.33 | Mean Error, Delay [4, 10]: 2.75 | Mean Error, Total [4, 10]: 1.54 | Mean Time 1.4 [4, 10]: 113.8 s | Mean Time 5- [4, 10]: 148.1 s | Mean Time Total [4, 10]: 130.92 s

Cc1cc(NCCCN(C)C)nc2ccccc12.O=C(O)/C=C/C(=O)O.O=C(O)/C=C/C(=O)O [Example 13, N,N-Dimethyl-N'-(4-methyl-2-quinolinyl)-1,3-propanediamine (E)-2-butenedioate (1:2)]
IC50 (M1 muscarinic receptor): 0.82 µM | IC50 (M2 receptors [1]): 21 µM | M2/M1 (M2 receptors [2]): 26

CN1[C@@H]2C[C@@H](OC(=O)[C@H](CO)c3ccccc3)C[C@H]1[C@@H]1O[C@@H]12 [Scopolamine]
effect on total activity ([3]; scopolamine 1.7 mg/kg, 15, 30, 45 and 60 minutes post-injection): significantly elevated total activity at all four time points | Total activity ([3]; scopolamine alone 1.7 mg/kg i.p., first experiment (Example 1), 15 min, N=9): 4349 | Total activity ([3]; scopolamine alone 1.7 mg/kg i.p., first experiment (Example 1), 30 min, N=9): 2816 | Total activity ([3]; scopolamine alone 1.7 mg/kg i.p., first experiment (Example 1), 45 min, N=9): 2638 | Total activity ([3]; scopolamine alone 1.7 mg/kg i.p., first experiment (Example 1), 60 min, N=9): 1858 | Total activity ([3]; scopolamine alone 1.7 mg/kg i.p., second experiment (oxotremorine), 15 min, N=9): 5486 | Total activity ([3]; scopolamine alone 1.7 mg/kg i.p., second experiment (oxotremorine), 30 min, N=9): 4720 | Total activity ([3]; scopolamine alone 1.7 mg/kg i.p., second experiment (oxotremorine), 45 min, N=9): 3718 | Total activity ([3]; scopolamine alone 1.7 mg/kg i.p., second experiment (oxotremorine), 60 min, N=9): 3510 | effect on delay and total errors ([4]; scopolamine 0.3 mg/kg S.C., compared to vehicle): produced a significant impairment in both delay and total errors | Mean Error, Current [4, 11]: 1.0 | Mean Error, Delay [4, 11]: 2.80 | Mean Error, Total [4, 11]: 1.90 | Mean Time 1.4 [4, 11]: 87.25 s | Mean Time 5- [4, 11]: 169.80 s | Mean Time Total [4, 11]: 128.50 s | memory loss in normal humans ([5]; muscarinic antagonist): can be artificially induced | memory loss in animals (memory loss): can be artificially induced

COC(=O)C1=CCCN(C)C1 [arecoline]
reversal of scopolamine-induced deficit [6]: can be reversed | clinical efficacy [7]: neither physostigmine nor arecoline have clinical efficacy due to undesirable side-effects, a short duration of action and a narrow active dose range

CNC(=O)Oc1ccc2c(c1)[C@]1(C)CCN(C)[C@@H]1N2C [physostigmine]
reversal of scopolamine-induced deficit ([5]; humans): can be reversed | reversal of scopolamine-induced deficit [8]: can be reversed | clinical efficacy [7]: neither physostigmine nor arecoline have clinical efficacy due to undesirable side-effects, a short duration of action and a narrow active dose range

lecithin
improvement on cognitive tests ([7]; Alzheimer's patients and healthy elderly patients): No significant improvement was observed on any cognitive test
